Experiments:
[1] = target: T1, G6sec2 (Homo sapiens, UniProt Q9BYG0); assay: β1,3-N-acetylglucosaminyltransferase activity of purified FLAG peptide-fused G6 polypeptide, 2-aminobenzamide-labeled oligosaccharide substrates; assay type: biochemical; conditions: for Relative activity (%) Test 1 G6sec2 / Relative activity (%) Test 2 G6sec2: 2-aminobenzamide-labeled oligosaccharides, LNnT defined as 100%; for Relative activity (%) Test 2 G6sec2: enzyme prepared again
T1 construct: made in house; host or cells: Sf21 insect cells infected with pVL1393-F2G6sec2-derived recombinant baculovirus
T1 sequence (Q9BYG0 39-378): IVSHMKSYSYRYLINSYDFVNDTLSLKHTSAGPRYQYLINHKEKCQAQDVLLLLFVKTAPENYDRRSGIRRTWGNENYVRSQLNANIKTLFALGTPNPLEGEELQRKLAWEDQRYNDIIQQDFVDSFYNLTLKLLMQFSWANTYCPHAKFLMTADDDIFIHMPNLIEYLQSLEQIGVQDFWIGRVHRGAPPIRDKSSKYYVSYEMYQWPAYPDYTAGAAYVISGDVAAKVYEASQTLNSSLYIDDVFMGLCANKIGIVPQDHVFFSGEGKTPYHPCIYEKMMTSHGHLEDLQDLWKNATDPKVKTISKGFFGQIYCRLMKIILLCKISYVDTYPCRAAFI
Protocol: (§1) β1,3-N-Acetylglucosaminyltransferase activity of the FLAG peptide-fused G6 polypeptide secreted and produced in insect cells was measured by using the eluate prepared in Example 8(6). The method of Example 7 was used for the activity measurement.
(§2) As substrates, oligosaccharides [LNnT, Galβ1-4GlcNAcβ1-3Galβ1-4GlcNAc (hereinafter referred to as “2LN”), Galβ1-4GlcNAcβ1-3Galβ1-4GlcNAcβ1-3Galβ1-4GlcNAc (hereinafter referred to as “3LN”), Galβ1-4GlcNAcβ1-3Galβ1-4GlcNAcβ1-3Galβ1-4GlcNAcβ1-3Galβ1-4GlcNAc (hereinafter referred to as “4LN”), Galβ1-4GlcNAcβ1-3Galβ1-4GlcNAcβ-3Galβ1-4GlcNAcβ1-3Galβ1-4GlcNAcβ1-3Galβ1-4GlcNAc (hereinafter referred to as “5LN”), or Galβ1-4(SO3-6)GlcNAcβ1-3Galβ1-4(SO3-6)GlcNAc (hereinafter referred to as “L2L2”)] were labeled with 2-aminobenzamide and used. 2-Aminobenzamide-labeling of oligosaccharides was carried out using SIGMA 2AB glycan labeling kit (manufactured by Oxford Glycoscience) according to the manufacture's instructions of the kit. LNnT was purchased from Oxford Glycosystems. Other oligosaccharides were obtained from Seikagaku Corporation.
Specifically, the reaction was carried out at 37° C. for 16 hours in 20 μl of an assay solution [150 mmol/l sodium cacodylate (pH 7.2), 50 mmol/l UDP-GlcNAc (manufactured by SIGMA), 0.4% Triton CF-54, 10 mmol/l MnCl2, 5 μmol/12-aminobenzamide-labeled sugar chain substrate, the above purified enzyme solution], and then the product was detected by high performance liquid chromatography (HPLC, details will be described below). As the enzyme, an eluate (1.5 μl) prepared from a culture supernatant of Sf21 infected with the recombinant virus derived from pVL1393-F2G6sec1 or an eluate (1.4 μl) prepared from a culture supernatant of Sf21 infected with the recombinant virus derived from pVL1393-F2G6sec2, prepared in Example 8(6), was used.
(§3) The assay solution after completion of the reaction was treated at 100° C. for 5 minutes and then mixed with 50 μl of pure water for HPLC and centrifuged at 10,000×g for 5 minutes to obtain the supernatant. To a tube containing the assay solution, 50 μl of pure water for HPLC was added again, the tube was washed, and suparnatant was obtained by centrifugation at 10,000×g for 5 minutes and was combined with the first supernatant. Next, the supernatant was passed through Ultrafree-MC column (manufactured by Millipore) and a portion thereof (10 μl) was subjected to HPLC. The Ultrafree-MC column was used according to the method described in the manufacture's instructions attached thereto.
(§4) The HPLC was carried out using TSK-gel ODS-80Ts Column (4.6×300 mm; manufactured by TOSOH) as a column and 0.02 mol/l ammonium acetate buffer containing 7% methanol (pH 4.0) as an eluant at an elution temperature of 50° C. and a flow rate of 1 ml/min.
(§5) The product was detected using a fluorescence spectrophotometer FP-920 (manufactured by JASCO Corporation) (excitation wavelength: 330 nm, radiation wavelength: 420 nm).
Also, a purified enzyme (G6sec2) was again prepared using the method shown in Example 8(6), its substrate specificity was again examined, and the results are also shown in Table 1 (Test 2 in Table 1). The purified enzyme (280 μl) was prepared from 30 ml of a culture supernatant of Sf21 infected with the recombinant virus derived from pVL1393-F2G6sec2, and the assay was carried out using a 4 μl portion thereof. Relative activities when the activity measured using 2-aminobenzamide-labeled LNnT as the substrate is defined as 100% are shown in the table.

[2] = target: T2, G6sec1 (Homo sapiens, UniProt Q9BYG0); assay: as above; assay type: biochemical; conditions: for Relative activity (%) Test 1 G6sec1: 2-aminobenzamide-labeled oligosaccharides, LNnT defined as 100%
T2 construct: made in house; host or cells: Sf21 insect cells infected with pVL1393-F2G6sec1-derived recombinant baculovirus
T2 sequence (Q9BYG0 36-378): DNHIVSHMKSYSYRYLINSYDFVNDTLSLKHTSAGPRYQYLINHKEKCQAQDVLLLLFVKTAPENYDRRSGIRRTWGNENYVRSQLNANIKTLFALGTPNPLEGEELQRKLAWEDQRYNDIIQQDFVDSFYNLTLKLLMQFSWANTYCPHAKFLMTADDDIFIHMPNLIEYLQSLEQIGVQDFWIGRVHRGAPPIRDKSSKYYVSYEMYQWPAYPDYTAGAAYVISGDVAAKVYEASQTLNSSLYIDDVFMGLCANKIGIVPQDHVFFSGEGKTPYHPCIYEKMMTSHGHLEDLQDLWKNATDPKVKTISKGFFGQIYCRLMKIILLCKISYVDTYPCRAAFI
Protocol: as §1, §2
Specifically, the reaction was carried out at 37° C. for 16 hours in 20 μl of an assay solution [150 mmol/l sodium cacodylate (pH 7.2), 50 mmol/l UDP-GlcNAc (manufactured by SIGMA), 0.4% Triton CF-54, 10 mmol/l MnCl2, 5 μmol/12-aminobenzamide-labeled sugar chain substrate, the above purified enzyme solution], and then the product was detected by high performance liquid chromatography (HPLC, details will be described below). […]
as §3, §4, §5

| Relative activity (%) Test 1 G6sec2 [1] | Relative activity (%) Test 2 G6sec2 [1] | conversion efficiency of the substrate into the product ([1]; G6sec2 eluate 1.4 μl, 2-aminobenzamide-labeled substrate, 37° C., 16 hours (Test 1)) | conversion efficiency into the product ([1]; G6sec2 prepared again, 4 μl, 2-aminobenzamide-labeled substrate (Test 2)) | Relative activity (%) Test 1 G6sec1 [2] | conversion efficiency of the substrate ([2]; G6sec1-adsorbed ANTI-FLAG M1 AFFINITY GEL used as enzyme) | conversion efficiency of the substrate into the product ([2]; G6sec1 eluate 1.5 μl, 2-aminobenzamide-labeled substrate, 37° C., 16 hours (Test 1)) | SMILES |
| --- | --- | --- | --- | --- | --- | --- | --- |
| 100% | 100% | 11.2% | 26.2% | 100% | 6.64% | 9.85% | CC(=O)N[C@H]1[C@H](O[C@H]2[C@@H](O)[C@@H](CO)O[C@@H](O[C@H]3[C@H](O)[C@@H](O)C(O)O[C@@H]3CO)[C@@H]2O)O[C@H](CO)[C@@H](O[C@@H]2O[C@H](CO)[C@H](O)[C@H](O)[C@H]2O)[C@@H]1O (mixture of isomers) [LNnT, lacto-N-neotetraose] |
| 86.8% | 65.3% |  |  | 81.4% |  |  | CC(=O)N[C@H]1[C@H](O[C@H]2[C@@H](O)[C@@H](CO)O[C@@H](O[C@H]3[C@H](O)[C@@H](NC(C)=O)C(O)O[C@@H]3CO)[C@@H]2O)O[C@H](CO)[C@@H](O[C@@H]2O[C@H](CO)[C@H](O)[C@H](O)[C@H]2O)[C@@H]1O (stereo partly shown) [2LN, Galβ1-4GlcNAcβ1-3Galβ1-4GlcNAc] |

Source: patent US7629150B2, “Transformed cell harboring DNA or RNA encoding sugar chain synthesizing agent having β1,3-N-acetylglucosaminyltransferase activity” (Kyowa Hakko Kirin Co., Ltd., priority 2000, dated 2009)
